# Measurements reported in ChEMBL document CHEMBL1201862, “PubChem BioAssay data set” (2004).
#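 Tested at 5 concentrations; 48 h exposure; 96-well plates; endpoints linearly interpolated, else capped at highest concentration. GI50 = concentration required for 50% inhibition of growth.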 Activity calls are given as the source filed them. No stated cut-off is given here; in the data, active = GI50 up to about 1.1 µM and inactive = higher.
# What was measured:
# Assay in all cases: inhibition of tumour cell growth, NCI panel, 48 h
# UACC-257 = test system: UACC-257
# HT-29 = test system: HT-29
# IGROV-1 = test system: IGROV-1
# KM12 = test system: KM12
# TK-10 = test system: TK-10
# SW-620 = test system: SW-620
# CCRF-CEM = test system: CCRF-CEM
# KM-20L2 = test system: KM-20L2
# ACHN = test system: ACHN
# RXF 393 = test system: RXF 393
# SF-268 = test system: SF-268
# NCI-H460 = test system: NCI-H460
# M19-MEL = test system: M19-MEL
# BT-549 = test system: BT-549
# A549 = test system: A549
# OVCAR-3 = test system: OVCAR-3
# K562 = test system: K562
# M14 = test system: M14
# U-251 = test system: U-251
# NCI/ADR-RES = test system: NCI/ADR-RES
# MCF7 = test system: MCF7
# NCI-H522 = test system: NCI-H522
# CAKI-1 = test system: CAKI-1
# 786-0 = test system: 786-0
# HCT-15 = test system: HCT-15
# MDA-MB-435 = test system: MDA-MB-435
# SF-295 = test system: SF-295
# SR = test system: SR
# LXFL 529 = test system: LXFL 529
# RPMI-8226 = test system: RPMI-8226
# OVCAR-5 = test system: OVCAR-5
# HL-60 = test system: HL-60
# OVCAR-8 = test system: OVCAR-8
# SN12C = test system: SN12C
# COLO 205 = test system: COLO 205
# DMS-273 = test system: DMS-273
# SF-539 = test system: SF-539
# OVCAR-4 = test system: OVCAR-4
# NCI-H226 = test system: NCI-H226
# SNB-78 = test system: SNB-78
# HCT-116 = test system: HCT-116
# DLD-1 = test system: DLD-1
# RXF 631 = test system: RXF 631
# A498 = test system: A498
# HOP-92 = test system: HOP-92
# EKVX = test system: EKVX
# SK-MEL-28 = test system: SK-MEL-28
# PC-3 = test system: PC-3
# SK-OV-3 = test system: SK-OV-3
# UO-31 = test system: UO-31
# DU-145 = test system: DU-145
# HCC 2998 = test system: HCC 2998
# SK-MEL-5 = test system: SK-MEL-5
# DMS-114 = test system: DMS-114
# UACC-62 = test system: UACC-62
# SNB-75 = test system: SNB-75
# SNB-19 = test system: SNB-19
# Hs-578T = test system: Hs-578T
# HOP-62 = test system: HOP-62
# Malme-3M = test system: Malme-3M
# LOX IMVI = test system: LOX IMVI
# T47D = test system: T47D
# MOLT-4 = test system: MOLT-4
# SK-MEL-2 = test system: SK-MEL-2
# XF498 = test system: XF498
# NCI-H23 = test system: NCI-H23
smiles,measurement,setting,value
CCCCCCCCCC[C@@H](O)[C@@H]1CC[C@@H]([C@@H]2CC[C@@H]([C@@H](O)CCCCCCCCCC[C@H](O)CC3=CC(C)OC3=O)O2)O1 (some centres not stated),GI50,UACC-257,0.356 µM (active)
same,GI50,HT-29,2.51 µM (inactive)
same,GI50,IGROV-1,3.48 µM (inactive)
same,GI50,KM12,2.16 µM (inactive)
same,GI50,TK-10,3.48 µM (inactive)
same,GI50,SW-620,3.78 µM (inactive)
same,GI50,CCRF-CEM,1.5 µM (inactive)
same,GI50,KM-20L2,13.6 µM (inactive)
same,GI50,ACHN,0.0355 µM (active)
same,GI50,RXF 393,3.22 µM (inactive)
same,GI50,SF-268,3.87 µM (inactive)
same,GI50,NCI-H460,0.895 µM (active)
same,GI50,M19-MEL,2.22 µM (inactive)
same,GI50,BT-549,4.23 µM (inactive)
same,GI50,A549,1.73 µM (inactive)
same,GI50,OVCAR-3,3.94 µM (inactive)
same,GI50,K562,31.8 nM (active)
same,GI50,M14,3.71 µM (inactive)
same,GI50,U-251,6.03 µM (inactive)
same,GI50,NCI/ADR-RES,256 nM (active)
same,GI50,MCF7,1.44 µM (inactive)
same,GI50,NCI-H522,1.72 µM (inactive)
same,GI50,CAKI-1,12.1 µM (inactive)
same,GI50,786-0,3.74 µM (inactive)
same,GI50,HCT-15,3.45 µM
same,GI50,MDA-MB-435,1.09 µM (active)
same,GI50,SF-295,1.71 µM (inactive)
same,GI50,SR,2.05 µM (inactive)
same,GI50,LXFL 529,3.82 µM (inactive)
same,GI50,RPMI-8226,1.26 µM (inactive)
same,GI50,OVCAR-5,9.25 µM (inactive)
same,GI50,HL-60,102 nM (active)
same,GI50,OVCAR-8,2.65 µM (inactive)
same,GI50,SN12C,5.62 µM (inactive)
same,GI50,COLO 205,3.94 µM (inactive)
same,GI50,DMS-273,2.36 µM (inactive)
same,GI50,SF-539,4.5 µM (inactive)
same,GI50,OVCAR-4,6.28 µM (inactive)
same,GI50,NCI-H226,1.29 µM (inactive)
same,GI50,SNB-78,3.8 µM (inactive)
same,GI50,HCT-116,1.91 µM (inactive)
same,GI50,DLD-1,3.31 µM (inactive)
same,GI50,RXF 631,1.97 µM (inactive)
same,GI50,A498,1.7 µM (inactive)
same,GI50,HOP-92,2.26 µM (inactive)
same,GI50,EKVX,1.61 µM (inactive)
same,GI50,SK-MEL-28,3.36 µM (inactive)
same,GI50,PC-3,2.34 µM (inactive)
same,GI50,SK-OV-3,3.92 µM (inactive)
same,GI50,UO-31,1.25 µM (inactive)
same,GI50,DU-145,8.95 µM (inactive)
same,GI50,HCC 2998,4.31 µM (inactive)
same,GI50,SK-MEL-5,0.0385 µM (active)
same,GI50,DMS-114,< 10 nM (active)
same,GI50,UACC-62,1.44 µM (inactive)
same,GI50,SNB-75,3.33 µM (inactive)
same,GI50,SNB-19,4.6 µM (inactive)
same,GI50,Hs-578T,4.04 µM (inactive)
same,GI50,HOP-62,2.99 µM (inactive)
same,GI50,Malme-3M,1.79 µM (inactive)
same,GI50,LOX IMVI,0.834 µM (active)
same,GI50,T47D,2.63 µM (inactive)
same,GI50,MOLT-4,1.77 µM (inactive)
same,GI50,SK-MEL-2,6.71 µM (inactive)
C1=CC(=P(c2ccccc2)(c2ccccc2)c2ccccc2)C=C1,GI50,UACC-257,7.48 µM (inactive)
same,GI50,HT-29,10.6 µM (inactive)
same,GI50,IGROV-1,11.5 µM (inactive)
same,GI50,KM12,9.31 µM (inactive)
same,GI50,TK-10,20.7 µM (inactive)
same,GI50,SW-620,16.1 µM (inactive)
same,GI50,CCRF-CEM,3.42 µM (inactive)
same,GI50,KM-20L2,11.3 µM (inactive)
same,GI50,ACHN,14.2 µM (inactive)
same,GI50,RXF 393,13.7 µM (inactive)
same,GI50,SF-268,10.3 µM (inactive)
same,GI50,NCI-H460,7.83 µM (inactive)
same,GI50,M19-MEL,4.04 µM (inactive)
same,GI50,A549,14.1 µM (inactive)
same,GI50,OVCAR-3,10.7 µM (inactive)
same,GI50,K562,3450 nM (inactive)
same,GI50,M14,8.22 µM (inactive)
same,GI50,NCI-H522,3.13 µM (inactive)
same,GI50,CAKI-1,17.9 µM (inactive)
same,GI50,786-0,10.4 µM (inactive)
same,GI50,HCT-15,29.7 µM
same,GI50,SF-295,15.1 µM (inactive)
same,GI50,LXFL 529,3.63 µM (inactive)
same,GI50,RPMI-8226,3.18 µM (inactive)
same,GI50,XF498,2.91 µM (inactive)
same,GI50,OVCAR-5,14.7 µM (inactive)
same,GI50,HL-60,2770 nM (inactive)
same,GI50,OVCAR-8,4.95 µM (inactive)
same,GI50,SN12C,10.3 µM (inactive)
same,GI50,COLO 205,4.13 µM (inactive)
same,GI50,DMS-273,9.91 µM (inactive)
same,GI50,NCI-H23,11.5 µM (inactive)
same,GI50,SF-539,14.8 µM (inactive)
same,GI50,OVCAR-4,13.9 µM (inactive)
same,GI50,SNB-78,7.5 µM (inactive)
same,GI50,DLD-1,12.5 µM (inactive)
same,GI50,RXF 631,19.4 µM (inactive)
same,GI50,HOP-92,6.14 µM (inactive)
same,GI50,EKVX,24.2 µM (inactive)
same,GI50,SK-MEL-28,4.45 µM (inactive)
same,GI50,SK-OV-3,18.2 µM (inactive)
same,GI50,UO-31,15.9 µM (inactive)
same,GI50,HCC 2998,10.6 µM (inactive)
same,GI50,SK-MEL-5,12.2 µM (inactive)
same,GI50,DMS-114,4650 nM (inactive)
same,GI50,UACC-62,6.25 µM (inactive)
same,GI50,SNB-75,3.37 µM (inactive)
same,GI50,SNB-19,4.67 µM (inactive)
same,GI50,HOP-62,18.4 µM (inactive)
same,GI50,Malme-3M,4.75 µM (inactive)
same,GI50,LOX IMVI,6.5 µM (inactive)
same,GI50,MOLT-4,5.4 µM (inactive)
same,GI50,SK-MEL-2,13.3 µM (inactive)
